Measurements: patent US8557873B2, “Method for treating septic shock or endotoxemia” (priority 2009, dated 2013)
“Also recorded” adds a separate entry of the source.

Experiments:
[1] = tested on: E. coli lipopolysacharide (LPS) induced septic shock/endotoxemia in male balb/c mice; experiment: Survival of mice injected with E. coli LPS, treated 30 minutes later with compound i.p., observed three days; type: in vivo; conditions: for Survival rate (%) / Survival/total mice: 30 min after LPS 0.4 mg i.p., three days; for Therapeutic effect compared to the other compounds or to recombinant APC: comparison in words; for Concentration with the best therapeutic effect: concentration in 1 ml injected i.p., effect goes down above it; for Best treatment volume: per body weight of the mouse
Method: The mice used in this invention were male balb/c having body weights around 20 g, five to six weeks old. Each mouse was intraperitoneally injected with E. coli lipopolysacharide (LPS) 0.4 mg in 1 ml sterile saline. After 30 minutes, each mouse was intraperitoneally injected with one of the following compounds: amylamine, isoamylamine, 2-methylbutamine, n-methylbutamine. The above compounds were dissolved in 1 ml sterile saline to be pH 7.4. The E. coli LPS was serotype 0111:B4 obtained from Sigma (St. Louis, Mo.).
(§1) Each mouse was intraperitoneally injected with E. coli lipopolysaccharide (LPS) 0.4 mg in 1 ml saline, and was then injected with 1 ml amylamine (represented by SS1) of different concentrations (0%, 0.1%, and 0.3%) 30 minutes later. […] The therapeutic effect goes down if the dose above 0.3%. The best treatment volume of amylamine is 0.15 ml/Kg body weight of the mouse.
as §1, with “lipopolysacharide” for “lipopolysaccharide”, “and” for “and was”, “isoamylamine” for “amylamine”, “SS2)” for “SS1)”, “0.1%.” for “0.3%.”, “0.05 ml/kg” for “0.15 ml/Kg”
as §1, with “lipopolysacharide” for “lipopolysaccharide”, “and” for “and was”, “2-methylbutamine” for “amylamine”, “SS3)” for “SS1)”, “0.1%.” for “0.3%.”, “0.05 ml/kg” for “0.15 ml/Kg”
Each mouse was intraperitoneally injected with E. coli lipopolysacharide (LPS) 0.4 mg in 1 ml saline, and then 30 minutes later injected with 1 ml n-methylbutamine (represented by SS9) of different concentrations (0%, 0.1%, 0.3% and 1.0%) 30 minutes later. […] The therapeutic effect goes down if the dose above 1.0%. The best treatment volume of n-methylbutamine is 0.5 ml/kg body weight of the mouse. The dose of SS9 above 1.0% is toxic to mouse.

[2] = tested on: patients with severe sepsis; conditions: cited from earlier work

Compound | Survival rate (%) ([1]; 0.1% in 1 ml i.p.) | Survival/total mice ([1]; 0.1% in 1 ml i.p.) | Survival rate (%) ([1]; 0.3% in 1 ml i.p.) | Survival/total mice ([1]; 0.3% in 1 ml i.p.) | Therapeutic effect compared to the other compounds or to recombinant APC [1] | Concentration with the best therapeutic effect [1] [%] | Best treatment volume [1] [mL/kg] | Absolute decrease in mortality [2] [%] | Survival rate (%) ([1]; 1.0% in 1 ml i.p.) | Survival/total mice ([1]; 1.0% in 1 ml i.p.) | Dose toxic to mouse ([1]; concentration in 1 ml i.p.)
CCCCCN [SS1, amylamine] | 18 | 3/17 | 53 | 9/17 | higher therapeutic effects and decreased mortality over recombinant APC | 0.3 | 0.15 | – | – | – | –
CC(C)CCN [SS2, isoamylamine] | 83 | 15/18 | 50 | 9/18 | more significant therapeutic effect; also recorded: higher therapeutic effects and decreased mortality over recombinant APC | 0.1 | 0.05 | – | – | – | –
activated protein C | – | – | – | – | – | – | – | 6.1 | – | – | –
CCCCNC [SS9, n-methylbutamine] | 39 | 5/13 | 54 | 7/13 | higher therapeutic effects and decreased mortality over recombinant APC | 1.0 | 0.5 | – | 62 | 8/13 | above 1.0%
CCC(C)CN (centres unmarked) [SS3, 2-methylbutamine] | 53 | 16/30 | 33 | 10/30 | higher therapeutic effects and decreased mortality over recombinant APC | 0.1 | 0.05 | – | – | – | –
